Assays:
[1] = target: T1, human cloned 5-HT2C receptor, expressed in CHO cells (Homo sapiens, UniProt P28335); assay: In vitro binding affinity for 5-HT2C receptor ([3H]mesulergine radioligand binding); conditions: human cloned 5-HT2C receptor; for IC50: read-out: 5-HT2C pIC50 (converted)
T1 construct: expressed in transfected cells; host or cells: CHO cells
T1 sequence (P28335 33-458): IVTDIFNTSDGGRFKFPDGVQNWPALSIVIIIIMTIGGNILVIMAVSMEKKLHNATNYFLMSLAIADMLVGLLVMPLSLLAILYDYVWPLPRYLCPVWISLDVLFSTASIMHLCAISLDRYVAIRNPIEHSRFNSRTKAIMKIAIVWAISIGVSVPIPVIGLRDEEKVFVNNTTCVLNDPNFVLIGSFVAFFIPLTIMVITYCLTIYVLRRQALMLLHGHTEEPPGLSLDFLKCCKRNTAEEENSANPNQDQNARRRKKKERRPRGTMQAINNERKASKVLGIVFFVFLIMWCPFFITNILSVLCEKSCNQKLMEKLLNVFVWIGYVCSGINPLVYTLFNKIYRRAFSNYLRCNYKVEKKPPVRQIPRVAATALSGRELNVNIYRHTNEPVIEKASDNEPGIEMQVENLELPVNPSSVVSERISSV
Protocol: In Vitro Binding Affinity for 5-HT2A and 5-HT2C Receptors
The interaction of the compounds of Formula (I) with 5-HT2A and 5-HT2C receptors was assessed in in vitro radioligand binding experiments. […] During the incubation, the radioligands bind to the receptor. When equilibrium of binding is reached, the receptor bound radioactivity is separated from the non-bound radioactivity, and the receptor bound activity is counted. The interaction of the test compounds with the receptors is assessed in competition binding experiments. Various concentrations of the test compound are added to the incubation mixture containing the tissue preparation and the radioligand. Binding of the radioligand will be inhibited by the test compound in proportion to its binding affinity and its concentration.

[2] = target: T2, NET (norepinephrine transporter) (Rattus norvegicus, UniProt Q63380); assay: In vitro determination of NET reuptake inhibition ([3H]Nixosetine binding, rat brain cortex); conditions: rat brain cortex; for IC50: read-out: NET pIC50 (converted)
T2 construct: Cortex from rat brain was collected and homogenised; from tissue; host or cells: rat brain cortex
Protocol: In Vitro Determination of NET Reuptake Inhibition
Cortex from rat brain was collected and homogenised using an Ultra-Turrax T25 and a Dual homogeniser in ice-cold homogenising buffer containing Tris, NaCl and KCl (50 mM, 120 mM and 5 mM, respectively, pH 7.4) prior to dilution to an appropriate protein concentration optimised for specific and non-specific binding. […] Membrane-bound activity was detected by filtration through a Packard Filtermate harvester onto GF/B Unifilterplates, washed with ice-cold Tris-HCl buffer, containing NaCl and KCl (50 mM, 120 mM and 4 mM; pH 7.4; 6×0.5 ml). Filters were allowed to dry for 24 h before adding scintillation fluid. Scintillation fluid was allowed to saturate filters for 24 h before counting in a Topcount scintillation counter. Percentage specific bound and competition binding curves were calculated using S-Plus software (Insightful).

[3] = target: T3, human Dopamine D2L receptor (Homo sapiens, UniProt P14416); assay: In vitro binding affinity for human D2L receptor ([3H]Spiperone binding); conditions: human D2L receptor-transfected CHO cell membranes; for IC50: read-out: D2L pIC50 (converted)
T3 construct: expressed in transfected cells; host or cells: CHO cells
Protocol: In Vitro Binding Affinity for Human D2L Receptor
Frozen membranes of human Dopamine D2L receptor-transfected CHO cells were thawed, briefly homogenised using an Ultra-Turrax T25 homogeniser and diluted in Tris-HCl assay buffer containing NaCl, CaCl2, MgCl2, KCl (50, 120, 2, 1, and 5 mM respectively, adjusted to pH 7.7 with HCl) to an appropriate protein concentration optimised for specific and non-specific binding. Radioligand [^3H]Spiperone (NEN, specific activity ˜70 Ci/mmol) was diluted in assay buffer at a concentration of 2 nmol/L. Prepared radioligand (50 μl), along with 50 μl of either the 10% DMSO control, Butaclamol (10^−6 mol/l final concentration), or compound of interest, was then incubated (30 min, 37° C.) with 400 μl of the prepared membrane solution. Membrane-bound activity was filtered through a Packard Filtermate harvester onto GF/B Unifilterplates and washed with ice-cold Tris-HCl buffer (50 mM; pH 7.7; 6×0.5 ml). Filters were allowed to dry before adding scintillation fluid and counting in a Topcount scintillation counter. Percentage specific bound and competition binding curves were calculated using S-Plus software (Insightful).

T3 sequence (P14416 whole entry): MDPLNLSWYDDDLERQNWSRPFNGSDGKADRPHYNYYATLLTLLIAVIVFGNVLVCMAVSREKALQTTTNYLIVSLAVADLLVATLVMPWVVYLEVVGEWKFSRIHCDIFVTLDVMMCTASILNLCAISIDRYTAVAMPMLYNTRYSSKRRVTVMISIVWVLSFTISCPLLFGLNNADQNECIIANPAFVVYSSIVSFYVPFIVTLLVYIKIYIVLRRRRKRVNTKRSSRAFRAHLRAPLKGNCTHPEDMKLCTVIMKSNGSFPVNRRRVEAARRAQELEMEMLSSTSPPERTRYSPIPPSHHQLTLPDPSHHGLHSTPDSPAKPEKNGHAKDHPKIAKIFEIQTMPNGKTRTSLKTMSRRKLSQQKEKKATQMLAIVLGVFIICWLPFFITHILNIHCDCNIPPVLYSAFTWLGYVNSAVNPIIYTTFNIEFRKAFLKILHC
T2 sequence (Q63380 1-617): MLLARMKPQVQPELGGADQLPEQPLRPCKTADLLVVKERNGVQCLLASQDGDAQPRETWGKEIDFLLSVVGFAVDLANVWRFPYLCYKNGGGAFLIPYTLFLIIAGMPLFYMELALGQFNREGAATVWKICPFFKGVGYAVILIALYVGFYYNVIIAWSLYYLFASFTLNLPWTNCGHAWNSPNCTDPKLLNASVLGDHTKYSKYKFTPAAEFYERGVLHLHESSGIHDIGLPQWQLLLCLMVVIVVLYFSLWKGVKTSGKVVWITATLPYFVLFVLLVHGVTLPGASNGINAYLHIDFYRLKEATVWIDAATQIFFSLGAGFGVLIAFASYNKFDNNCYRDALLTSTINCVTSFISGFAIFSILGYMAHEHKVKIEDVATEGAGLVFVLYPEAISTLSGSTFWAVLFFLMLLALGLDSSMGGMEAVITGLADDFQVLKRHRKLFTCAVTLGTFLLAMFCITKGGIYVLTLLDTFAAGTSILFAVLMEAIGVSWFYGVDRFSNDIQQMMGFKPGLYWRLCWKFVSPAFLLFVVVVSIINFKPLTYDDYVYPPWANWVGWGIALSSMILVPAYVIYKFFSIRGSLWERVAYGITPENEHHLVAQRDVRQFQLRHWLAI

Row | SMILES | IC50 [1] | IC50 [2] | IC50 [3] | 5-HT2C pIC50 [1] | NET pIC50 [2] | D2L pIC50 [3]
1 | O=C(NCc1cccs1)C1CCN(CC2CC3c4ccccc4Cc4ccc(F)cc4C3O2)CC1 (stereo not drawn) [Compound 195] | 1.62 nM | 7760 nM | 5.5 nM |  |  | 
2 | O=C(NC1CCN(CC2CC3c4ccccc4Cc4ccc(F)cc4C3O2)CC1)C1CC1 (stereo not drawn) [Compound 220] | 2.14 nM | 5370 nM | 4.27 nM |  |  | 
3 | CC(C)(C)COC(=O)NC1CCN(CC2CC3c4ccccc4Cc4ccc(F)cc4C3O2)CC1 (stereo not drawn) [Compound 215] |  | 7410 nM | 15.8 nM |  |  | 
4 | COc1cc(NC(=S)NC2CCN(CC3CC4c5ccccc5Cc5ccc(F)cc5C4O3)CC2)cc(OC)c1OC (stereo not drawn) [Compound 255] | 20.4 nM | 5620 nM | 20.4 nM |  |  | 
5 | CC(C)c1ccccc1NC(=O)C1CCN(CC2CC3c4ccccc4Cc4ccc(F)cc4C3O2)CC1 (stereo not drawn) [Compound 185] | 10.7 nM | > 10000 nM | 15.5 nM |  |  | 
6 | O=C(NCc1cccc(C(F)(F)F)c1)C1CCN(CC2CC3c4ccccc4Cc4ccc(F)cc4C3O2)CC1 (stereo not drawn) [Compound 182] | 8.32 nM | 6920 nM | 31.6 nM |  |  | 
7 | O=C(O)C1CCN(C[C@H]2C[C@@H]3c4ccccc4Cc4ccc(F)cc4[C@@H]3O2)CC1 [Compound 157] | 7.24 nM | > 10000 nM | 132 nM |  |  | 
8 | CCCOC(=O)NC1CCN(CC2CC3c4ccccc4Cc4ccc(F)cc4C3O2)CC1 (stereo not drawn) [Compound 212] | 7.41 nM | 7080 nM | 6.03 nM |  |  | 
9 | O=C(Nc1ccccc1Oc1ccccc1)NC1CCN(CC2CC3c4ccccc4Cc4ccc(F)cc4C3O2)CC1 (stereo not drawn) [Compound 250] | 20.4 nM | 3890 nM | 37.2 nM |  |  | 
10 | CCOC(=O)NC1CCN(CC2CC3c4ccccc4Cc4ccc(F)cc4C3O2)CC1 (stereo not drawn) [Compound 211] | 5.75 nM | > 10000 nM | 5.89 nM |  |  | 
11 | CC(=O)N1CCC(C(=O)NC2CCN(CC3CC4c5ccccc5Cc5ccc(F)cc5C4O3)CC2)CC1 (stereo not drawn) [Compound 224] | 12.9 nM | > 10000 nM | 3.39 nM |  |  | 
12 | O=C(NC1CCN(CC2CC3c4ccccc4Cc4ccc(F)cc4C3O2)CC1)c1cccc(C(F)(F)F)c1 (stereo not drawn) [Compound 233] | 30.9 nM | 5250 nM | 14.8 nM |  |  | 
13 | COCCOC(=O)NC1CCN(CC2CC3c4ccccc4Cc4ccc(F)cc4C3O2)CC1 (stereo not drawn) [Compound 216] | 6.17 nM | > 10000 nM | 10.2 nM |  |  | 
14 | CCCCOC(=O)NC1CCN(CC2CC3c4ccccc4Cc4ccc(F)cc4C3O2)CC1 (stereo not drawn) [Compound 213] | 15.5 nM | 4370 nM | 8.71 nM |  |  | 
15 | O=C(NC1CCN(CC2CC3c4ccccc4Cc4ccc(F)cc4C3O2)CC1)c1ccc(Cl)c(Cl)c1 (stereo not drawn) [Compound 229] | 24 nM | > 10000 nM | 14.8 nM |  |  | 
16 | O=C(NC1CCN(CC2CC3c4ccccc4Cc4ccc(F)cc4C3O2)CC1)c1cccc(F)c1 (stereo not drawn) [Compound 231] | 10.7 nM | 8510 nM | 1.86 nM |  |  | 
17 | Cc1onc(-c2ccccc2Cl)c1C(=O)NC1CCN(CC2CC3c4ccccc4Cc4ccc(F)cc4C3O2)CC1 (stereo not drawn) [Compound 222] | 19.5 nM | > 10000 nM | 15.1 nM |  |  | 
18 | CC1c2ccccc2C2CC(CN3CCC(O)C3)OC2c2cc(F)ccc21.O=C(O)C(=O)O (mixture of isomers) [Compound 45] |  |  |  | 8.66 | 7.33 | 6.46
19 | O=C(NCc1ccco1)C1CCN(CC2CC3c4ccccc4Cc4ccc(F)cc4C3O2)CC1 (stereo not drawn) [Compound 194] | 1.45 nM | 9120 nM | 5.01 nM |  |  | 
20 | O=C(Cc1ccc(Cl)cc1)NC1CCN(CC2CC3c4ccccc4Cc4ccc(F)cc4C3O2)CC1 (stereo not drawn) [Compound 239] | 22.9 nM | > 10000 nM | 49 nM |  |  | 
21 | Cn1cccc1C(=O)NC1CCN(CC2CC3c4ccccc4Cc4ccc(F)cc4C3O2)CC1 (stereo not drawn) [Compound 221] | 11 nM | 7240 nM | 7.76 nM |  |  | 
22 | O=C(Cc1cccs1)NC1CCN(CC2CC3c4ccccc4Cc4ccc(F)cc4C3O2)CC1 (stereo not drawn) [Compound 240] | 5.75 nM | > 10000 nM | 4.57 nM |  |  | 
23 | O=C(NC1CCN(CC2CC3c4ccccc4Cc4ccc(F)cc4C3O2)CC1)c1c(F)c(F)c(F)c(F)c1F (stereo not drawn) [Compound 234] | 21.9 nM | 7240 nM | 8.71 nM |  |  | 
24 | N#Cc1ccc(NC(=O)NC2CCN(CC3CC4c5ccccc5Cc5ccc(F)cc5C4O3)CC2)cc1 (stereo not drawn) [Compound 248] | 6.17 nM | 3800 nM | 2.09 nM |  |  | 
25 | O=C(O)C(=O)O.OC1CCN(CC2CC3c4ccccc4Oc4ccc(F)cc4C3O2)CC1 (stereo not drawn) [Compound 283] |  |  |  |  |  | 6.70

Further lines, with some results ahead:

Row | IC50 [1] | IC50 [2] | IC50 [3] | SMILES | 5-HT2C pIC50 [1] | NET pIC50 [2] | D2L pIC50 [3]
26 | 6.76 nM | 6170 nM | 25.7 nM | O=C(C1CCN(CC2CC3c4ccccc4Cc4ccc(F)cc4C3O2)CC1)N1CC=C(c2ccccc2)CC1 (stereo not drawn) [Compound 207] |  |  | 
27 | 1.23 nM | > 10000 nM | 1.35 nM | OCC1CCN(CC2CC3c4ccccc4Cc4ccc(F)cc4C3O2)CC1 (stereo not drawn) [Compound 151] |  |  | 
28 | 6.46 nM | 7760 nM | 5.5 nM | O=C(CSc1ccccc1)NC1CCN(CC2CC3c4ccccc4Cc4ccc(F)cc4C3O2)CC1 (stereo not drawn) [Compound 241] |  |  | 
29 | 5.75 nM | 5620 nM | 10.2 nM | O=C(NC1CCN(C[C@H]2C[C@@H]3c4ccccc4Cc4ccc(F)cc4[C@@H]3O2)CC1)OCc1ccccc1Cl [Compound 218] |  |  | 
30 | 3.16 nM | 2400 nM | 14.5 nM | OC1CCCN(CC2CC3c4ccccc4Cc4ccc(F)cc4C3O2)C1 (single isomer, unassigned) [Compound 142] |  |  | 
31 | 24.5 nM | > 10000 nM | 56.2 nM | COc1ccc(NC(=O)CC2CN(C[C@H]3C[C@@H]4c5ccccc5Cc5ccc(F)cc5[C@@H]4O3)CCO2)cc1 (stereo partly drawn) [Compound 139] |  |  | 
32 | 0.692 nM | > 10000 nM | 4.79 nM | OC1CCN(C[C@H]2C[C@@H]3c4ccccc4Cc4ccc(F)cc4[C@@H]3O2)CC1 [Compound 144, [2R-(2α, 3aα, 12bβ)]1-(11-fluoro-3,3a,8,12b-tetrahydro-2H-1-oxa-dibenzo[e,h]azulen-2-ylmethyl)-piperidin-4-ol.oxalate (1:1)] |  |  | 
33 | 30.9 nM | 2400 nM | 19.5 nM | Fc1ccc2c(c1)C1OC(CN3CCOC(CCOc4ccccc4)C3)CC1c1ccccc1C2 (mixture of isomers) [Compound 131] |  |  | 
34 | 1.15 nM | 4790 nM | 16.6 nM | OC1CCCN(CC2CC3c4ccccc4Cc4ccc(F)cc4C3O2)C1 (racemic) [Compound 141] |  |  | 
35 | 4.17 nM | 3800 nM | 17 nM | OCCC1CCCN(CC2CC3c4ccccc4Cc4ccc(F)cc4C3O2)C1 (mixture of isomers) [Compound 152] |  |  | 
36 | 5.75 nM | 1350 nM | 11.7 nM | O=C(NC1CCN(CC2CC3c4ccccc4Cc4ccc(F)cc4C3O2)CC1)NC1CC1c1ccccc1 (mixture of isomers) [Compound 246] |  |  | 
37 | 1.17 nM | > 10000 nM | 7.76 nM | O=C(Nc1ccccc1F)C1CCN(CC2CC3c4ccccc4Cc4ccc(F)cc4C3O2)CC1 (stereo not drawn) [Compound 189] |  |  | 
38 | 6.61 nM | 10500 nM | 5.37 nM | O=C(NC1CCN(CC2CC3c4ccccc4Cc4ccc(F)cc4C3O2)CC1)c1ccccc1Br (stereo not drawn) [Compound 226] |  |  | 

— patent US8569267B2, “Tetracyclic tetrahydrofuran derivatives containing cyclic amine side chain” (Janssen Pharmaceutica, NV, priority 2005, dated 2013)
